Experimental findings from patent US5955471A, “Tetrahydroisoquinolinealkanol derivatives and pharmaceutical compositions containing same” (SK Corporation, priority 1998, dated 1999) are described below.

The test system of assay [1] is 5-HT-mediated head-twitch response. Description: Head-Twitch Test (5-HTP-induced head-twitch response in mice). Particulars: oral, vs control vehicle. The class given is in vivo. Here is the method: The head-twitch response of mice is initiated by a variety of 5-HT mimetic drugs. The test was conducted in a manner similar to the procedure described by Heal, D. J., Philpot, J, O'Shaughnessy, K. M. and Davies, C. L.: The influence of central noradrenergic function on 5-HT-mediated head-twitch responses in mice: Possible implications for the actions of antidepressant drugs. Psychopharmacology 89: 414-420, 1986,
The head-twitch consisted of a characteristic rotation of the head, neck and shoulders of the mice. The test drug or vehicle was given by oral gavage. Thirty minutes later all animals were pretreated with carbidopa (25 mg/kg ip). Fifteen minutes following carbidopa administration, the mice were injected with 100 mg/kg ip of L-5-hydroxytryptophan (5-HTP). The animals were then left for 30 minutes before measurement of the head-twitch response in the following 2-minute period. For calculation of percent (%) response increase, the difference in drug head twitch number versus the control vehicle head twitch number is divided by the control head twitch and multiplied by 100.

Assay [2] in a line: Behavior Despair (Forced Swimming) test in rats (po). The assay is classed as in vivo. To be noted: 60 mg/kg (po), 4-minute test period, vs control vehicle. Here is the method:
(§1) Behavior Despair (Forced Swimming) test, a well known pharmacological screening method for depression, was conducted similary to the test described by Porsolt, R. D., Bertin, A and Jalfre, M.: Behavior despair in mice: A preliminary screening test for antidepressants. Arch. Int. Pharmacodyn. Ther. 229: 327-336, 1977.
Rats were pre-swam for 10 minutes the day before the test in 4000 mL glass cylinders containing water at 25° C. On the following day, rats were dosed orally (po) with either test compound or vehicle. One hour later each animal was placed in a glass cylinder and, following a 2-minute pretest, immobility was recorded for a 4-minute test period. For calculation of percent (%) reduction in immobility time, the difference in immobility time for control vehicle versus the drug is divided by the immobility time of the control vehicle and multiplied by 100.

The subject of another assay is MAO-A. Description: MAO-A inhibiting activity in vitro, rat liver mitochondrial membranes. The class given is biochemical. To be noted: 10 uM; 300 nM deprenyl to block MAO-B; 60 minutes preincubation, 37° C., pH 7.2; [14C] Serotonin. Here is the method:
The MAO-A activities in vitro were measured using Rat liver mitochondrial membranes as the source of the enzyme, according to a modified method of S. Otsuka & Y. Kobayashi: A Radioisotopic Assay for Monoamine Oxidase Determinations in Human Plasma. Biochem. Pharmacol. 13: 995-1006 (1964)
Rat liver mitochondrial membranes are preincubated with drug or vehicle, and subtype selective blocker (300 nM deprenyl to block the B type of MAO) for 60 minutes at 37° C. in 100 mM KPO4 (pH 7.2). [^14 C] Serotonin ([…]) is then added and incubated for 10 minutes. The reaction is stopped by the addition of 0.5 ml of 2M citric acid. Radioactive product is extracted into a toluene/ethyl acetate fluor and compared to control values by scintillation spectrophotometry in order to ascertain any interactions of test compounds with MAO-A.

Assay [3] is described as follows: Behavior Despair (Forced Swimming) test in mice (ip). The class given is in vivo. Particulars: 30 mg/kg (ip), 15-minute test period, vs control vehicle. The procedure:
as §1
Mice were dosed intraperitoneally (ip) with either test compound or vehicle. One hour later each animal was placed in a 1500 mL glass beaker containing water at room temperature. Mice were kept in the water for a period of 15 minutes and the duration of immobility observed within the 15-minute test period was recorded. A mouse was judged to be immobile if it floated motionlessly in the water making only those movements necessary to keep its head above the water. For calculation of percent (%) reduction in immobility time, the difference in immobility time for control vehicle versus the drug is divided by the immobility time of the control vehicle and multiplied by 100.

As to `CN1Cc2ccccc2C[C@H]1COC(N)=O` [Example 8, (S)-3-Carbamoyloxymethyl-N-methyl-1,2,3,4-tetrahydroisoquinoline], the “% Response Increase” value in assay [1] (1 mg/kg) was found to be 77%.

For the molecule `NC(=O)OC[C@@H]1Cc2ccccc2CN1` [Example 3, (S)-3-Carbamoyloxymethyl-1,2,3,4-tetrahydroisoquinoline], in assay [1] (1 mg/kg), the “% Response Increase” value is 238%. Moreover, the “% Reduction (immobility time)” value in assay [2] amounted to 83%. The “% Inhibition (MAO-A)” value in the assay with MAO-A was 97.7%.

Regarding `CNC(=S)OC[C@@H]1Cc2ccccc2CN1C` [Example 18], the “% Reduction (immobility time)” value in assay [3] turned out to be 33%. The same measure, in the same setting: to `CNC(=S)OC[C@@H]1Cc2ccccc2CN1` [Example 16, (S)-3-(N-Methylthiocarbamoyloxymethyl)-1,2,3,4-tetrahydroisoquinoline] belongs 56%.

For `NC(=O)OC[C@@H]1Cc2ccccc2CN1` [Example 5, (S)-3-Carbamoyloxymethyl-1,2,3,4-tetrahydroisoquinoline], in assay [1] (3 mg/kg), the “% Response Increase” value came out at 144%. Turning to `CNC(=S)OC[C@@H]1Cc2ccccc2CN1C(=O)Nc1ccccc1` [Example 17, (S)-3-(N-Methyl-thiocarbamoyloxymethyl)-N-(anilinocarbonyl)-1,2,3,4-tetrahydroisoquinoline], the “% Reduction (immobility time)” value in assay [3] was 46%. On to `NC(=O)OC[C@H]1Cc2ccccc2CN1` [Example 4, (R)-3-Carbamoyloxymethyl-1,2,3,4-tetrahydroisoquinoline], for which the “% Response Increase” value in assay [1] (15 mg/kg) is on record as 258%. Further, the “% Inhibition (MAO-A)” value in the assay with MAO-A is given as 63.9%. Regarding `NC(=S)OCC1Cc2ccccc2CN1` (centres unmarked) [Example 14, 3-Thiocarbamoyloxymethyl-1,2,3,4-tetrahydroisoquinoline], the “% Response Increase” value in assay [1] (8 mg/kg) is on record as 42%.
